Values after ≈ are worked out from the molar mass of the structure shown.
Legend:
[1] = Kattus et al. 1951; cited from earlier work
[2] = Intravenous emetic study in dogs (ED50); format: in vivo, dog; conditions: dog, in vivo, iv; read-out: ED50 (median emetic dose), I.V. Dogs
Protocol: (§1) Twelve adult mongrel dogs of either sex were employed to determine the median emetic dose (ED50) of all five experimental compounds after intravenous administration. […] Onset, frequency, and duration of emetic episodes were also recorded. The dogs were not fasted, were allowed at least 2 days rest between doses, and no animal received the same compound twice in succession. […] ED50 values were calculated according to the method of Litchfield and Wilcoxon (1949).

dogs [3] = assay: Intravenous emetic study in dogs (ED50); format: in vivo, dog; conditions: estimated at HBD
Protocol: as §1

dogs [4] = assay: Oral minimum emetic dose in dogs; format: in vivo, dog
Protocol: 2. Oral Minimum Emetic Dose
The minimum dose of each compound which causes emesis after oral administration was estimated in a group of five adult mongrel dogs of either sex. Logarithmically increasing or decreasing (depending upon response) doses of each compound were administered orally via a flexible stomach tube. The compounds were dissolved in distilled water in concentrations to allow a constant volume dose of 5 ml/kg. […] Onset, frequency, and duration of emetic episodes as well as signs of CNS stimulation were also recorded.

[5] = Summary of relative molar activities (means and therapeutic efficacy); conditions: mean bronchodilator (therapeutic) activity divided by mean acute toxic and side effect activity
Description: ^g - Mean bronchodilator (therapeutic) activity divided by mean acute

human bronchodilator = assay: Estimated human bronchodilator dose equivalent to recommended theophylline dose; conditions: based on recommended theophylline dose and relative bronchodilator activities
Description: Experimental results are summarized in Table I wherein pharmacologic and toxicologic activities relative to that of theophylline are expressed on a molar basis.
^a - Dose: Based on the recommended dose for theophylline and the
relative activities in the bronchodilator experiments.

dogs [6] = conditions: dog, in vivo, iv
Protocol: Intravenous Cardiovascular Evaluation in Dogs
Thirteen adult mongrel dogs of either sex ranging in weight from 16.7 to 25.0 kg were employed to compare the overall intravenous cardiovascular activity of the five experimental compounds.
Dogs were anesthetized with pentobarbital sodium, 30-35 mg/kg i.v., fitted with a cuffed endotracheal tube, and ventilated with a Harvard Animal Respiratory Pump. A femoral vein was cannulated for i.v. drug administration. The left common carotid artery was cannulated and the cannula tip advanced into the aortic arch. A median sternotomy was performed and appropriately sized electromagnetic blood flow transducers (Biotronex) were placed around the ascending aorta and left anterior descending coronary artery. These procedures allowed continuous recording or calculation of the following parameters:
a. Mean Arterial Pressure (MAP); from the aortic cannula.
b. Heart Rate (HR); electronically from pulsatile ascending aortic flow.
c. Cardiac Output (CO); mean ascending aortic flow.
d. Myocardial Contractile Force (MCF); dQ/dt, the first derivative of maximum aortic flow rate, also known as peak aortic flow acceleration.
e. Stroke Volume (SV); quotient of CO/HR.
f. Cardiac Work (CW); product of CO X MAP.
g. Total Peripheral Resistance (TPR); quotient of MAP/CO.
h. Coronary Flow (CF); mean left anterior descending (LAD) coronary flow.
i. Coronary Resistance (CR); quotient of MAP/CF.
Logarithmically increasing doses of the appropriate compound were injected at 20-minute intervals. Responses were measured at 1, 2, 5, 10, 15 and 20 minutes after each dose and the average response during that period was calculated. Theophylline (aminophylline), dyphylline (II), and Compound V were employed in both 20 and 80 mg/ml concentrations in distilled water. Compounds III and IV were used in 10 and 30 mg/ml concentrations respectively.

dogs [7] = conditions: dog, in vivo, iv; remark: listed apart in the source
Protocol: Acute Intravenous Evaluation in Dogs
Compounds were tested in two dogs each. Animals were initially hydrated with 30 ml/kg of water, orally; then anesthetized with pentobarbital sodium, 30-35 mg/kg i.v. One femoral vein was cannulated and a constant intravenous infusion of warm saline (3 ml/min.) was begun and continued throughout the experiment. The contralateral femoral vein was also cannulated for intravenous drug administration. Urine was directly collected from bilateral ureter cannulae. After a 20-minute control collection period, the first dose of the appropriate compound was injected and urine was collected at 20-minute intervals for a period of one hour. This procedure was repeated for two additional doses of the same compound. Urine volume, pH, and sodium and potassium levels were determined for each 20-minute collection period and sums were obtained for the one-hour period after each dose. Test results, reported as successive changes in each parameter, were compared accordingly.

[8] = prior art statement; cited from earlier work

## CCCCn1c(=O)c2[nH]cnc2n(CCCC)c1=O [1,3-dibutyl xanthine]
[1]
  Diuretic and emetic properties in words (prior art): extremely potent

## CCn1c(=O)c2[nH]cnc2n(CC)c1=O [1,3-diethyl, 1,3-diethyl xanthine]
[1]
  Diuretic and emetic properties in words (prior art): extremely potent

## CCCn1c(=O)c2[nH]cnc2n(CCC)c1=O [1,3-dipropyl, 1,3-dipropyl xanthine]
[1]
  Diuretic and emetic properties in words (prior art): extremely potent

## Cn1c(=O)c2[nH]cnc2n(C)c1=O [Compound I, 1,3-dimethylxanthine]
[2]
  ED50: 58 mg/kg
Dogs [3]
  Emetic effect, I.V. Dogs: None
Dogs [4]
  MED (minimum emetic dose), P.O. Dogs: 128 mg/kg
Dogs [4]; estimated at HBD
  Emetic effect, P.O. Dogs: None
[5]
  Therapeutic Efficacy: 1.00
Human bronchodilator
  Estimated Human Bronchodilator Dose (HBD), per 70 kg: 200 mg/70 kg
  Estimated Human Bronchodilator Dose (HBD), per kg: 2.9 mg/kg
Dogs [6]
  CF (coronary flow) change: +21 %Δ
  CO (cardiac output) change: +7 %Δ
  CW (cardiac work) change: -5 %Δ
  Cardiovascular effects (Mean): 12
  HR (heart rate) change: +11 ΔBPM
  MAP (mean arterial pressure) change: -12 ΔmmHg
  MCF (myocardial contractile force) change: +17 %Δ
  TPR (total peripheral resistance) change: -12 %Δ
Dogs [7]
  Diuretic Activity, I.V. Dogs: Mild
[8]
  Water solubility in words (prior art): lack of water solubility
Solubility; water
  solubility: 8000 µg/mL (≈ 44.4 mM)
Solubility; water solubility, qualitative
  Solubility in words: poor solubility

Reference: patent publication US4031218A, “7-(2,3-Dihydroxypropyl-1,3-di-n-propylxanthine and a pharmaceutical composition containing same useful as a bronchial muscle relaxant” (Mallinckrodt, Inc., priority 1976, dated 1977)
